Laboratory results: ChEMBL document CHEMBL5729119, “Aliphatic acid amide derivative” (2022)

How the values were obtained:
[1] = target: 5-hydroxytryptamine receptor 7 (Homo sapiens, UniProt P34969); experiment: Binding Activity Assay: Human 5-HT2A Receptor, Human 5-HT7 Receptor, and Human D2 Receptor: Binding affinity of the present compound for human 5-HT2A receptor, human 5-HT7 receptor, and human D2 receptor was measured by the following procedures.CHO cell membrane fraction in which human 5-HT2A receptor, human 5-HT7 receptor, or human D2 receptor was expressed was purchased from PerkinElmer, Inc. …
D(2) dopamine receptor = D(2) dopamine receptor (Homo sapiens, UniProt P14416); experiment: as above
Chain of D(2) dopamine receptor (P14416 whole entry): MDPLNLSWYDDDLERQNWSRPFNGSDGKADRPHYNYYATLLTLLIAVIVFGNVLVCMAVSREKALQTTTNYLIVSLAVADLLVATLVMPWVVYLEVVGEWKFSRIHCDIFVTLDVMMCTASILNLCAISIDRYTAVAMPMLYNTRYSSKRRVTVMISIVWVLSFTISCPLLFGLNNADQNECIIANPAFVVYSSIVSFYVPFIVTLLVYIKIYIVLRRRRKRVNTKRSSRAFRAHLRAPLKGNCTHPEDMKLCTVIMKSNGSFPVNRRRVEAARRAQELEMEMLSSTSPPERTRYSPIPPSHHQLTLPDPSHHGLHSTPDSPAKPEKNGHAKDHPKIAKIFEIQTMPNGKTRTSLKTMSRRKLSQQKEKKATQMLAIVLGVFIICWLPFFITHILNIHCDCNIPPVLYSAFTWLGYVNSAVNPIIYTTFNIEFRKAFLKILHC

Chain of 5-hydroxytryptamine receptor 7 (P34969 whole entry): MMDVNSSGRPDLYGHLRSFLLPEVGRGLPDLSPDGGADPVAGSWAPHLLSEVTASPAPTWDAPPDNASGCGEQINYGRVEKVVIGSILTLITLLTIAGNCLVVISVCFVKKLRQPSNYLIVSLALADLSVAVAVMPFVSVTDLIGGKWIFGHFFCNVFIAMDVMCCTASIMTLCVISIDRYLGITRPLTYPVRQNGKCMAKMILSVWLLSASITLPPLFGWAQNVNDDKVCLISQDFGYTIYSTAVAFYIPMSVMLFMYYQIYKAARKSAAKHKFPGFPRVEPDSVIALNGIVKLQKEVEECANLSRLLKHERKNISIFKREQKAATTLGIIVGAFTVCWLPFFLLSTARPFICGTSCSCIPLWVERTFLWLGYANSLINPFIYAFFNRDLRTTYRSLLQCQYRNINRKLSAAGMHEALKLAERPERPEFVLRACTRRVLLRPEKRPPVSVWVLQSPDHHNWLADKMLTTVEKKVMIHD

| Ki [1] | Ki (D(2) dopamine receptor) | Compound |
| --- | --- | --- |
| 1.1 nM | < 100 nM | CCN(CCN1CCC(c2noc3cc(F)ccc23)CC1)C(=O)C1(O)CC1 |
| 4.9 nM | 155 nM | CCN(CCN1CCC(c2noc3cc(F)ccc23)CC1)C(=O)CCO |
| 20.3 nM | > 1000 nM | CCN(CCN1CCC(c2noc3cc(F)c(C)cc23)CC1)C(=O)[C@H](C)O |
